Reference: EPA's ToxValDB 9.5 (doi:10.2903/j.efsa.2010.1671)

Columns and labels:
Rattus norvegicus = conditions: for NOAEL: inhalation
Anas platyrhynchos = conditions: short-term; oral; feed; mortality
Colinus virginianus = conditions: acute, oral, mortality
Coturnix japonica = conditions: reproduction developmental
Leuciscus idus = conditions: acute; duration: 96 hours; mortality
Macromiidae = conditions: acute; duration: 72 hours; biomass
[1] = chronic, duration: 2 years, no effects
[2] = reproduction developmental, mortality
[3] = subchronic, duration: 90 days, no effects

SMILES	NOAEL (Rattus norvegicus; [1]) [mg/kg-day]	NOAEL (Rattus norvegicus; [2]) [mg/kg-day]	NOAEL (Rattus norvegicus; [3]) [mg/kg-day]	LC50 (Anas platyrhynchos) [mg/kg]	LC50 (Colinus virginianus; diet) [mg/kg]	LD50 (Colinus virginianus) [mg/kg-day]	NOEL (Coturnix japonica; F) [mg/kg-day]	NOEL (Coturnix japonica; M) [mg/kg-day]	LC50 (Leuciscus idus) [µg/mL]	NOEC (Macromiidae) [mg/L]	LD50 (Rattus norvegicus; acute, oral, mortality) [mg/kg-day]	LOEC (Rattus norvegicus; subchronic, duration: 90 days, oral) [mg/kg-day]
P [Phosphine]	1.1	1.9	1.1	–	–	–	–	–	–	–	–	–
[PH]=[Zn].[PH]=[Zn].[Zn] [Zinc phosphide (Zn3P2)]	1.1	1.9	1.1	2880	468	12.9	0.99	1.2	> 21.7	0.00323	37	3.5
